Like-named read-outs stand apart in the source and are kept apart here.
Columns and labels:
[1] = molecular target: T1, creatine amidinohydrolase of this invention (from Flavobacterium U-188, Micrococcus luteus ATCC 398 or Corynebacterium U-41) (Flavobacterium sp. U-188, UniProt P19213); assay: Creatine amidinohydrolase activity, enzyme of this invention; type: biochemical
T1 sequence (P19213 1-403): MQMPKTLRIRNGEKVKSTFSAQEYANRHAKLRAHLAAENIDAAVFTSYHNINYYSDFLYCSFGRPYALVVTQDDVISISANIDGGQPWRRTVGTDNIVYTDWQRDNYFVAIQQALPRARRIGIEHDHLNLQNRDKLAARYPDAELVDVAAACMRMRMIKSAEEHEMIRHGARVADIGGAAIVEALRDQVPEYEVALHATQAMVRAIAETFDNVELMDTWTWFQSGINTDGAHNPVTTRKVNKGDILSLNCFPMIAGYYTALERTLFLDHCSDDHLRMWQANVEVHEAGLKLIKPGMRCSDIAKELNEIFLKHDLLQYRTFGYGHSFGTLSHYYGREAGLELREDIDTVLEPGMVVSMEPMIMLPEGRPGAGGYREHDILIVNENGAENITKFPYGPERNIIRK
Procedure: This enzyme has an ability to hydrolyze creatine into urea and sarcosine. […] 2.
To 0.8 ml of 0.1 M creatine solution are added 0.1 of 0.3 M phosphate buffer (pH 7.7) and 0.1 ml of a solution of this enzyme having an appropriate concentration, and the resulting mixture is reacted at 37° C. for 10 minutes. Then, 2 ml of 2% (W/V) p-dimethylaminobenzaldehyde solution (prepared by dissolving 2 g of p-dimethylaminobenzaldehyde into 100 ml of 99.5% ethanol, adding 15 ml of concentrated hydrochloric acid and diluting the mixture with distilled water to a 2 times greater quantity) is added, and the resulting mixture is allowed to stand at 25° C. for 30 minutes. Then, its absorbance (O. D. value) at 435 mμ is measured with photoelectric colorimeter. […] The quantity of enzyme necessary for producing 1 micromole of urea per one minute at 37° C. is taken as one unit.

[2] = molecular target: T2, creatine amidinohydrolase of prior art (i) (Journal of General Microbiology, Vol. 14, pp. 351 to 365 (1956); Genus Pseudomonas) (Pseudomonas putida, UniProt P38488); conditions: cited from earlier work
T2 sequence (P38488 1-403): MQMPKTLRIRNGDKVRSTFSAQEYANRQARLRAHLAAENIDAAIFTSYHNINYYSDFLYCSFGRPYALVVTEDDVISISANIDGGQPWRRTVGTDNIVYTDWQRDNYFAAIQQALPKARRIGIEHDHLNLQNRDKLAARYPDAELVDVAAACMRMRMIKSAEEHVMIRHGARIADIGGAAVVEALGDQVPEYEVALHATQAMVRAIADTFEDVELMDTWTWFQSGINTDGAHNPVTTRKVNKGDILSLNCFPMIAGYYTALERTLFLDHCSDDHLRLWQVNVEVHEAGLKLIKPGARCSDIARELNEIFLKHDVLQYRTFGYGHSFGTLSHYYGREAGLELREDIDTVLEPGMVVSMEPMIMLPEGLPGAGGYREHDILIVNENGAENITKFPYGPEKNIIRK

[3] = inhibitor final concentration 5 × 10^-2 M, pH 9.1
[4] = inhibitor final concentration 2 × 10^-2 M

## O=C(O)CI [Iodoacetate]
[1]; read-out: Percentage inhibition of creatine removal
  inhibition at 10000 µM: 0%
[2]; inhibitor final concentration 10^-2 M
  Percentage inhibition of creatine removal: 20%

## Borate
[1]; [3]
  Percentage inhibition of creatine removal: 40%
[2]; [3]
  Percentage inhibition of creatine removal: 80%

## [N-]=[N+]=[N-] [Azide]
[1]; [4]
  Percentage inhibition of creatine removal: 0%
[2]; [4]
  Percentage inhibition of creatine removal: 18%

From US4039384A, “Creatinine amidohydrolase and creatine amidinohydrolase and process for producing them” (Noda Institute for Scientific Research, priority 1975, dated 1977)
